Laboratory results as given in US9017689B2, “Peptides for vaccine against birch allergy” (Circassia Limited, priority 2010, dated 2015).
Where two headings read alike, the source gives them in different places. Ends that are not written are not given here.

Legend:
[1] = tested on: Peripheral blood mononuclear cells (PBMCs); test: Cytokine release assay (IL-10, IL-13, IFN-g multiplex bead assay); assay type: cell-based, human; conditions: proportion of subjects in which peptide induced IL-13 or IFN-g above 100 pg/ml; 47 birch allergic subjects; peptide 100 μg/ml; 5 days
Experimental: Peripheral blood mononuclear cells (PBMCs) were isolated from heparinised blood by Ficoll density gradient centrifugation. […] Following stimulation, culture supernatants (100 μl) were harvested for testing by multiplex bead assay.
Multiplex cytokine bead assays (IL-10, IL-13, Interferon gamma (IFN-g)) were performed on thawed culture supernatants according to the manufacturer's instructions. Single measurements were performed for each culture supernatant sample. After completion of the multiplex assay, individual cytokine levels were determined by interpolation from the standard curve generated in the assay.

[2] = Solubility screening in trehalose matrices pH 2.65 to 7.03; assay type: physicochemical; conditions: for solubility: read-out: Solubility [mg per ml];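 on all read-outs here: test items are peptides, each checked for solubility in every trehalose matrix, the matrices made up in distilled deionised water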
Experimental: The solubility of each of the nine peptides was evaluated in each of the matrices in accordance with Appendix 1.
Each matrix was prepared at a concentration of 10 mM of the buffering agent.
The procedure indicated is for the preparation of 100 mL of each buffer, but alternative volumes can be prepared by adjusting the quantities. • 0.1M stock solutions of sodium citrate and potassium dihydrogen phosphate were prepared. • Weight of trehalose dihydrate equivalent to 260 mM was transferred to an appropriate mixing vessel containing 70-80 mL of distilled deionised water and allowed to dissolve. • 10 mL of the appropriate stock 0.1M buffer solution was added to the mixing vessel and stirred. • The pH of the matrix was adjusted to the desired value by adding 2 mM hydrochloric acid or 0.1M sodium hydroxide as required. • The solutions were finally diluted to 100 g weight and the pH re-assessed.

[3] = 2 mM HCl and 260 mM trehalose dihydrate, pH 2.65
[4] = 10 mM potassium dihydrogen phosphate and 260 mM trehalose dihydrate, pH 6.03
[5] = 10 mM potassium dihydrogen phosphate and 260 mM trehalose dihydrate, pH 7.03
[6] = 10 mM sodium citrate and 260 mM trehalose dihydrate, pH 3.01
[7] = 10 mM sodium citrate and 260 mM trehalose dihydrate, pH 3.99
[8] = 10 mM sodium citrate and 260 mM trehalose dihydrate, pH 5.02
[9] = 10 mM sodium citrate and 260 mM trehalose dihydrate, pH 6.01

IKYMVIQGEAGAVIRGK (GIKYMVIQGEAGAVIRGK; Betulaceae) [Bir13, Bet v2-derived peptide]
% responders [1]: 23%

ETLLRAVESYLLAHSDAY [Bir09]
Comments (solubility on preparation) [2, 3]: Completely dissolved•
Solubility [mg per ml 'as is'] [2, 3]: 0.92 mg per ml ‘as is’
Solubility [μmol per ml] [2, 3]: 0.379 μmol per ml
Solubility after 24 Hours [2, 3]: Completely dissolved•
Solubility [mg per ml 'as is'] [2, 4]: 0.35 mg per ml ‘as is’
Solubility [μmol per ml] [2, 4]: 0.143 μmol per ml
Comments (solubility on preparation) [2, 5]: Completely dissolved
Solubility [mg per ml 'as is'] [2, 5]: 1.52 mg per ml ‘as is’
Solubility [μmol per ml] [2, 5]: 0.627 μmol per ml
Solubility after 24 Hours [2, 5]: Completely dissolved
Comments (solubility on preparation) [2, 6]: Undissolved in 1.5 mL•
Solubility [mg per ml 'as is'] [2, 6]: 0.37 mg per ml ‘as is’
Solubility [mg per ml] [2, 6]: 0.314 mg per ml
Solubility [μmol per ml] [2, 6]: 0.153 μmol per ml
Solubility after 24 Hours [2, 6]: Undissolved
Solubility [mg per ml 'as is'] [2, 7]: 0.36 mg per ml ‘as is’
Solubility [μmol per ml] [2, 7]: 0.148 μmol per ml
Solubility [mg per ml 'as is'] [2, 8]: 0.37 mg per ml ‘as is’
Solubility [μmol per ml] [2, 8]: 0.154 μmol per ml
Comments (solubility on preparation) [2, 9]: Completely dissolved
Solubility [mg per ml 'as is'] [2, 9]: 1.03 mg per ml ‘as is’
Solubility [μmol per ml] [2, 9]: 0.426 μmol per ml
Solubility after 24 Hours [2, 9]: completely dissolved
solubility ([2]; aqueous buffer, 10 mM potassium dihydrogen phosphate and 260 mM trehalose dihydrate, pH 6.03): ≥ 293 µg/mL
solubility ([2]; aqueous buffer, 10 mM potassium dihydrogen phosphate and 260 mM trehalose dihydrate, pH 7.03): ≥ 1290 µg/mL
solubility ([2]; aqueous buffer, 10 mM sodium citrate and 260 mM trehalose dihydrate, pH 3.99): ≥ 303 µg/mL
solubility ([2]; aqueous buffer, 10 mM sodium citrate and 260 mM trehalose dihydrate, pH 5.02): ≥ 315 µg/mL
solubility ([2]; aqueous buffer, 10 mM sodium citrate and 260 mM trehalose dihydrate, pH 6.01): ≥ 875 µg/mL
solubility ([2]; water, 2 mM HCl and 260 mM trehalose dihydrate, pH 2.65): ≥ 777 µg/mL
